Source: ChEMBL document CHEMBL1201862, “PubChem BioAssay data set” (2004)
Active and inactive are the calls of the source.

Experiments:
[1] = Luminescence Cell-Based Dose Response HTS to Identify Activators of Luciferase Translation or Activity in H4 […] Cells. [Related pubchem assays: 1829 (Project Summary), 1814 (Primary HTS)]; type: functional
[2] = system: H4; test: Luminescence Cell-Based Dose Response HTS to Identify Activators of 5'UTR Stem-Loop Driven Prion Protein mRNA Translation in H4 Neuroglioblastoma Cells. [Related pubchem assays: 1829 (Project Summary), 1814 (Primary HTS)]; type: functional; conditions: Homo sapiens
[3] = molecular target: Potassium voltage-gated channel subfamily KQT member 2 (Rattus norvegicus, UniProt O88943); test: rat KCNQ2 current potentiators – automated patch clamp, KCNQ2-CHO cells, SAR follow-up (AID 493113); type: functional
[4] = molecular target: Large T antigen (Simian virus 40, UniProt P03070); type: functional, Betapolyomavirus macacae;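 further: Confirmatory-stage PubChem screen for compounds that inhibit SV40 T antigen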
[5] = molecular target: Keap1/Nrf2 (Homo sapiens, UniProt Q14145); test: disruptors of Keap1 binding to Nrf2 peptide – biochemical, fluorescence polarization, cherry-picked samples, dose response (AID 588683)
[6] = molecular target: Troponin, cardiac muscle (Homo sapiens, UniProt P19429+P45379+P63316); test: Fluorescence-based biochemical high throughput dose response assay for activators of the calcium sensitivity of cardiac Regulated Thin Filaments (RTF). [Related pubchem assays (depositor defined):AID493008, AID493018, AID504382, AID504383]; type: protein-complex assay
[7] = molecular target: Intestinal-type alkaline phosphatase (Mus musculus, UniProt P24822); test: mouse intestinal alkaline phosphatase activators, dose response, biochemical, luminescence, uHTS hits (AID 488783); type: functional
[8] = molecular target: Intestinal-type alkaline phosphatase (Homo sapiens, UniProt P09923); test: activation of human intestinal alkaline phosphatase – biochemical, dose response (AID 488873); type: functional
[9] = molecular target: T1, Alkaline phosphatase, tissue-nonspecific isozyme (Homo sapiens, UniProt P05186); test: activation of tissue-nonspecific alkaline phosphatase – biochemical, TNAP isozyme, mouse IAP uHTS hits, selectivity assay for mouse IAP activator project, dose response (AID 488880); type: functional
T1 sequence (P05186 whole entry): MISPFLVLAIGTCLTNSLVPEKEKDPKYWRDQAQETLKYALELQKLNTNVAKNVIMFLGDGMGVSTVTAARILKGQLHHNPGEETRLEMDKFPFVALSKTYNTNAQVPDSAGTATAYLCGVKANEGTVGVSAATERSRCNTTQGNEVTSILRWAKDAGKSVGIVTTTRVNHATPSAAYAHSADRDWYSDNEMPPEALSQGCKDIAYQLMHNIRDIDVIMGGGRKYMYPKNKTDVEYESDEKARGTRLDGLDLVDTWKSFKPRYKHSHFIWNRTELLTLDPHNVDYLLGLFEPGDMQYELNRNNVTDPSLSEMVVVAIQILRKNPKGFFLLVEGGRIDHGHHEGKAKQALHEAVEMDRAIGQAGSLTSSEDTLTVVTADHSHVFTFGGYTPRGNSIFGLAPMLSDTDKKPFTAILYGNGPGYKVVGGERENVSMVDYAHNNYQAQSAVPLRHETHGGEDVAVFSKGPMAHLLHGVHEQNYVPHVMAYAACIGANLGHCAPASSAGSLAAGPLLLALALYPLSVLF

[10] = molecular target: Bifunctional protein GlmU (Mycobacterium tuberculosis, UniProt P9WMN3); test: Inhibitors of Mycobacterial Glucosamine-1-phosphate acetyl transferase (GlmU). Secondary screen.; parameters: species or system Mycobacterium tuberculosis H37Rv
[11] = molecular target: T2, Tyrosine-protein phosphatase non-receptor type 7 (Homo sapiens, UniProt P35236); test: redox-active compounds inhibiting HePTP phosphatase – biochemical, fluorescence, mechanism study (AID 2068); type: functional
T2 sequence (P35236 whole entry): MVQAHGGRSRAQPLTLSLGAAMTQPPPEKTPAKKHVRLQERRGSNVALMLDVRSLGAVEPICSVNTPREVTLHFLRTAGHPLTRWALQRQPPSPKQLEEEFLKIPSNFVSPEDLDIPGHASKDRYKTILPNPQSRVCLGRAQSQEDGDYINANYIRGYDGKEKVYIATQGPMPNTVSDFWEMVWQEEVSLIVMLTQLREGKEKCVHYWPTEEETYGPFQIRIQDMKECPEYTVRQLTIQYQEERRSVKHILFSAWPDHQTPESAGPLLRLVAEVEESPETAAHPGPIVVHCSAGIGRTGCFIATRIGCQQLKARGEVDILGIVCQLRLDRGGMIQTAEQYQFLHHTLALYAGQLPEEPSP

[12] = molecular target: T3, Tyrosine-protein phosphatase non-receptor type 22 (Homo sapiens, UniProt Q9Y2R2); test: SAR LYP1 Fluorescent Assay using OMFP substrate for In Vitro dose response studies - Set 3. [Related pubchem assays (depositor defined):AID1779, AID1784, AID2140, AID2686]; type: functional
T3 sequence (Q9Y2R2 whole entry): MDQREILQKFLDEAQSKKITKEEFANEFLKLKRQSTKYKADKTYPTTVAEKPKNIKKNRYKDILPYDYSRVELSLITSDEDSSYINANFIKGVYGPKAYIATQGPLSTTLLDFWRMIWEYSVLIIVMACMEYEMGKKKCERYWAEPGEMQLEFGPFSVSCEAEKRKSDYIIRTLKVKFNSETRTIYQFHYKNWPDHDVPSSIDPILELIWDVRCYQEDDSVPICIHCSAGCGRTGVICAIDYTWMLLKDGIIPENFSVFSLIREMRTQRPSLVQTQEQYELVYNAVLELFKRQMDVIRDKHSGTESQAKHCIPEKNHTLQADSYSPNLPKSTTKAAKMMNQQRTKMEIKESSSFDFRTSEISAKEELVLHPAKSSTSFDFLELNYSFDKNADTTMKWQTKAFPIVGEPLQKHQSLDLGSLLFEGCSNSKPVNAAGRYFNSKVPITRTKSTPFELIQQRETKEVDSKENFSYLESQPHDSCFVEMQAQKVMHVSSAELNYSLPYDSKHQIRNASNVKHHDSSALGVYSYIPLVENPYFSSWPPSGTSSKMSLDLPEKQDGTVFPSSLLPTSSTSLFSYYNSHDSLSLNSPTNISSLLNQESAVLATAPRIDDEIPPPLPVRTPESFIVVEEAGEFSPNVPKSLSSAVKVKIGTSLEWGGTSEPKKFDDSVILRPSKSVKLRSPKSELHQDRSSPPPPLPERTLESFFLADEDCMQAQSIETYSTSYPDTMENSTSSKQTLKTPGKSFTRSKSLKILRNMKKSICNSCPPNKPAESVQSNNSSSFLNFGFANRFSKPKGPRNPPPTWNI

[13] = molecular target: T4, Dual specificity protein phosphatase 3 (Homo sapiens, UniProt P51452); test: VHR1 phosphatase inhibitors, primary screen, biochemical, absorbance, uHTS (AID 1654)
[14] = molecular target: Tyrosine-protein phosphatase non-receptor type 12 (Homo sapiens, UniProt Q05209); test: SAR Selectivity Analysis of small molecule inhibitors of PEST using pCAP in a fluorescence assay. [Related pubchem assays (depositor defined):AID1779, AID1784, AID2135]; type: functional
[15] = molecular target: T4, Dual specificity protein phosphatase 3; test: SAR VHR1 Fluorescent Assay for In Vitro dose response studies. [Related pubchem assays (depositor defined):AID1654, AID1661, AID1878, AID1992, AID2004, AID2070, AID2085]; type: functional
[16] = molecular target: T5, Dual specificity protein phosphatase 6 (Rattus norvegicus, UniProt Q64346); test: inhibition of rat DUSP6 enzyme activity – biochemical, in vitro, primary screen (AID 425)
T5 sequence (Q64346 whole entry): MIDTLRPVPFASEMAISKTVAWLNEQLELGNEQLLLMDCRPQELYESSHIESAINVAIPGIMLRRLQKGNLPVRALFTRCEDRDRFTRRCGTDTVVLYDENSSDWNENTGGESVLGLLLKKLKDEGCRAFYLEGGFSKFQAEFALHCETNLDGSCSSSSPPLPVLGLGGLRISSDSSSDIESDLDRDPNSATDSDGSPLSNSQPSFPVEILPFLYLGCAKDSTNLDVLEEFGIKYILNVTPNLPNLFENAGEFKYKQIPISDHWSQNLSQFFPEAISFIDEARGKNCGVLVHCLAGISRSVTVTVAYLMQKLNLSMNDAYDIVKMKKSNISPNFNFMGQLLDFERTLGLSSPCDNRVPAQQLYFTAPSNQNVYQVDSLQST

[17] = molecular target: T4, Dual specificity protein phosphatase 3; test: SAR VHR1 absorbance Assay for In Vitro dose response studies. [Related pubchem assays (depositor defined):AID1654, AID1661, AID1878, AID1992, AID2004]
[18] = molecular target: T6, Apoptotic protease-activating factor 1 (Homo sapiens, UniProt O14727); test: activation of Apaf-1 mediated apoptosis – fluorescent, uHTS hits, dose response (AID 588554); type: functional
T6 sequence (O14727 whole entry): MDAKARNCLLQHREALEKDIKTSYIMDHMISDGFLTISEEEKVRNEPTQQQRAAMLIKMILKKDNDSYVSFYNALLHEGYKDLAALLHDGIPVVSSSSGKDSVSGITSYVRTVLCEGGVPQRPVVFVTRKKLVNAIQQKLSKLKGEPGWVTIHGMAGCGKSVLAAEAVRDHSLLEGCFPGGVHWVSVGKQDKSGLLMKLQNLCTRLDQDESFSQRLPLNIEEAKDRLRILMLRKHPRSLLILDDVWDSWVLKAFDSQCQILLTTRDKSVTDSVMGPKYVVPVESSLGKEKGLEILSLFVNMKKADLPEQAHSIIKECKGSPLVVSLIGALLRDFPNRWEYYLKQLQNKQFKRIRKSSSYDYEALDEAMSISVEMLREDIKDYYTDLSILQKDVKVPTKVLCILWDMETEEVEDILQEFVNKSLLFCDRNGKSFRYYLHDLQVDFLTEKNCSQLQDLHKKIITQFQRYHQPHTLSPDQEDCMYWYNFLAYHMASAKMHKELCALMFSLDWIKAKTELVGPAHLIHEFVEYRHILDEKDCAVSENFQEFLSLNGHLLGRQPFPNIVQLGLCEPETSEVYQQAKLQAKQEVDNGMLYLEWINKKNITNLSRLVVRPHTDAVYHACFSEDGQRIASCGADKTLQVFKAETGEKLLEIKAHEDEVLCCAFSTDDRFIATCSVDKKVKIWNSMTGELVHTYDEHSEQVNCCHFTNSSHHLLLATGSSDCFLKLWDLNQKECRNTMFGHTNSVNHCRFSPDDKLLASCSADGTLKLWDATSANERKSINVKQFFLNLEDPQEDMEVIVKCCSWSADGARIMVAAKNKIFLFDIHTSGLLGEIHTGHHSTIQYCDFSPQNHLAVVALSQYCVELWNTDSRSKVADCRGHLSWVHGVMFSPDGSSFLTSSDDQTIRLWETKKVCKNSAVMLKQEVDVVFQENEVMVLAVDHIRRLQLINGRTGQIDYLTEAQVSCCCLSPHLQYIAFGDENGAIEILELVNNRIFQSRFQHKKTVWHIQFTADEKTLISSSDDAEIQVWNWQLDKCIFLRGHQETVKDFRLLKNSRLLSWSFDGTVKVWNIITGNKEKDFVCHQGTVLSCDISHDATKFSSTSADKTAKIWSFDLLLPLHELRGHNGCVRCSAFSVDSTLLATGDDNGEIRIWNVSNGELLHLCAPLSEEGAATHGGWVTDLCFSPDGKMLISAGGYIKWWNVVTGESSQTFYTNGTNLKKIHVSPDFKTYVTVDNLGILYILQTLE

[19] = molecular target: T5, Dual specificity protein phosphatase 6; type: functional
[20] = molecular target: T4, Dual specificity protein phosphatase 3; test: VHR1 phosphatase inhibitors, biochemical (AID 1878)
[21] = molecular target: Genome polyprotein (dengue virus type 2, UniProt P29990); test: flavivirus cap methylation enzyme inhibition – biochemical, confirmation dose response, primary screen (AID 588689); type: functional
[22] = molecular target: T3, Tyrosine-protein phosphatase non-receptor type 22; test: inhibition of lymphoid tyrosine phosphatase LYP – biochemical, pCAP fluorogenic substrate, fluorescence, set 3, SAR follow-up (AID 449727); type: functional
[23] = molecular target: T4, Dual specificity protein phosphatase 3; test: SAR VHR1 Fluorescent Assay for In Vitro dose response studies Set 3. [Related pubchem assays (depositor defined):AID1654, AID1661, AID1878]; type: functional
[24] = molecular target: Cyclin-dependent kinase 5/CDK5 activator 1 (Homo sapiens, UniProt Q00535); test: blockade of human CDK5 activity – biochemical, cherry-picked samples, set 2, dose response (AID 504545)
[25] = HEK-293T viability loss, compound-treated – cell-based, uHTS hits, cytotoxicity control for B/T-cell NF-kB inhibitor project, dose response (AID 489019); type: functional;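 further: IC50 reflects cytotoxicity as loss of cell viability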
[26] = system: Jurkat; test: blockers of NF-kB activation in T cells – Jurkat, luciferase reporter, luminescence, B- and T-cell, dose response (AID 489004); type: functional, cell-based; conditions: Homo sapiens;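 further: NF-kB luciferase reporter Jurkat cells stimulated with PMA plus ionomycin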

CC(C)c1ccc(NC(=O)C2CC3CCC2C3)cc1 (stereo unspecified)
EC50 [1]: 0.432 µM (active)
EC50 [2]: 65.4 µM (active)
EC50 [3]: 0.72 µM (active)

Cc1ccc(/C=C2/SC(=O)NC2=S)o1
IC50 [4]: > 100 µM (active)
AC50 [5]: > 52 µM (inactive)
EC50 [6]: 17.9 µM (inactive)
EC50 [7]: 21.8 µM (active)
EC50 [8]: 41.4 µM (active)
EC50 [9]: 45.5 µM (active)
IC50 [10]: 170 µM (active)

CCc1ccc(NC2=NC(=O)/C(=C/c3cc(Br)c(OCC(=O)O)c(OC)c3)S2)cc1
IC50 [11]: 0.28 µM (active)
IC50 [12]: 10.3 µM (active)
IC50 [13]: 10.5 µM (active)
IC50 [14]: 2.78 µM (active)
IC50 [15]: 0.878 µM (active)
IC50 [16]: 84.5 µM (active)
IC50 [17]: 3.62 µM (active)
EC50 [18]: 15.8 µM (active)
IC50 [19]: 44.9 µM (active)
IC50 [20]: 3.93 µM (active)
IC50 [21]: 39.5 µM (active)
IC50 [22]: 6.74 µM (active)

Cc1cc(Cl)cc2sc(N(Cc3cccnc3)C(=O)c3cccc(N4C(=O)CCC4=O)c3)nc12
IC50 [23]: 58.2 µM (active)

C=CC(=O)Nc1ccc(Nc2nc(N[C@H]3CC[C@H](N(C)C)CC3)nc3c2ncn3C(C)C)cc1
AC50 [24]: 1.48 µM (active)
IC50 [25]: > 80 µM (inactive)
IC50 [26]: 0.17 µM (active)
